Data on 22 compounds can be found in patent US6521653B2 (priority 1995, dated 2003).

Each structure is given as a SMILES string. Values after ≈ are worked out from the molar mass of the structure shown.

In one test the test system is Phytophthora infestans. The test can be described thus: whole plant or invertebrate. In kind it is in vivo. Particulars: Phytophthora infestans, in Solanum lycopersicum, 72 h, read-out: Efficiency in %, based on the untreated control at an active compound concentration of 50 ppm.
For the compound `Cc1oncc1S(=O)(=O)n1nnc2c(Br)cc(C(F)(F)F)cc21`, the pest or weed control at 50 ppm turned out to be 98%.
The same measure, in the same setting: the figure for `Cc1ccc2c(c1)nnn2S(=O)(=O)c1c(C)noc1C` is 97%; for `Cc1onc(N)c1S(=O)(=O)n1nnc2cc(Cl)ccc21` it is 97%.
Regarding `Cc1noc(C)c1S(=O)(=O)n1nnc2cc3c(cc21)OC(F)(F)C(F)(F)O3` [drawing 100], the pest or weed control at 50 ppm was determined as 95%.
Still for that read-out and setting: the figure for `Cc1noc(C)c1S(=O)(=O)n1nnc2cc(Cl)ccc21` is 100%; for `Cc1noc(C)c1S(=O)(=O)n1nnc2cc([N+](=O)[O-])ccc21` it is 100%.
The same measure, in the same setting: to `Cc1onc(N)c1S(=O)(=O)n1nnc2cc3c(cc21)OC(F)(F)O3` belongs 97%.
Still for that read-out and setting: the figure for `Cc1noc(C)c1S(=O)(=O)n1nnc2ccccc21` is 97%.
Regarding `Cc1noc(C)c1S(=O)(=O)n1nnc2cc3c(cc21)OC(F)(F)O3` [drawing 101], the pest or weed control at 50 ppm is 99%.
On the same count and under the same terms, the figure for `Cc1oncc1S(=O)(=O)n1nnc2cc3c(cc21)OC(F)(F)O3` [drawing 103] is 100%; for `Cc1noc(C)c1S(=O)(=O)n1nnc2c(Br)cc(C(F)(F)F)cc21` [drawing 102] it is 89%.

Staying with this test, now noted: tomato, protective spray, 100 ppm, evaluation 3 days after inoculation.
Consider `Cc1noc(C)c1S(=O)(=O)n1nnc2cc3c(cc21)OC(F)(F)C(F)(F)O3` [drawing 95], for which the “Efficiency in %, based on the untreated control at an active compound concentration of 100 ppm” value (shortened to “Efficiency in %, based”) was found to be 94%.
The same measure, in the same setting: the figure for `Cc1oncc1S(=O)(=O)n1nnc2cc3c(cc21)OC(F)(F)O3` [drawing 99] is 99%; for `Cc1oncc1S(=O)(=O)n1nnc2cc3c(cc21)OC(F)(F)C(F)(F)O3` [drawing 98] it is 94%.
Take `Cc1noc(C)c1S(=O)(=O)n1nnc2c(Br)cc(C(F)(F)F)cc21` [drawing 97]: the “Efficiency in %, based” value worked out at 95%.
On to `Cc1noc(C)c1S(=O)(=O)n1nnc2cc3c(cc21)OC(F)(F)O3` [drawing 96], for which the “Efficiency in %, based” value worked out at 94%.

The next test concerns Plasmopara viticola. The test can be described thus: Plasmopara test (grapevines)/protective. In kind it is in vivo. Particulars: protective spray, evaluation 6 days after inoculation. The protocol: Plasmopara Test (Grapevines)/Protective
Solvent: 4.7 parts by weight of acetone
Emulsifier: 0.3 parts by weight of alkylaryl polyglycol ether
To obtain an expedient preparation of active compound, 1 part by weight of active compound is mixed with the amounts of solvent and emulsifier cited and the concentrate is diluted with water to the desired concentration.
To test for protective activity, young plants are sprayed with the active compound preparation until dew moist. After the sprayed coating has dried on, the plants are inoculated with an aqueous spore suspension of Plasmopara viticola and then remain for 1 day in a moist chamber at 20 to 22° C. and 100% relative humidity. The plants are then set up for 5 days in a greenhouse at 21° C. and approximately 90% relative humidity. The plants are then moistened and placed in a moist chamber for 1 day.
The evaluation is performed 6 days after the inoculation. In the evaluation, 0% denotes an efficiency corresponding to that of the untreated control, while an efficiency of 100% denotes that no contamination is observed.
For `Cc1oncc1S(=O)(=O)n1nnc2cc3c(cc21)OC(F)(F)O3` [drawing 114], the “Efficiency in %, based” value amounted to 100%.
The same measure, in the same setting: the figure for `Cc1noc(C)c1S(=O)(=O)n1nnc2cc3c(cc21)OC(F)(F)C(F)(F)O3` [drawing 111] is 100%; for `Cc1oncc1S(=O)(=O)n1nnc2cc3c(cc21)OC(F)(F)C(F)(F)O3` [drawing 113] it is 100%.
Same read-out and setting: the figure for `Cc1noc(C)c1S(=O)(=O)n1nnc2cc3c(cc21)OC(F)(F)O3` [drawing 112] is 100%.

The subject of a further test is Chaetomium globosum. The test can be described thus: Material protection test (MIC on malt extract agar). The test is classed as cell-based. Particulars: 336 h, two weeks at 28° C., 60 to 70% relative humidity, read-out: Minimal inhibitory concentration (MIC value) Chaetomium globosum. The protocol: (§1) active compounds of the invention are added at concentrations of 0.1 mg/l to 5000 mg/l to an agar prepared with malt extract. After the agar has solidified, it is infected with pure cultures of Penicillium brevicaule, Chaetomium globosum and Aspergillus niger. After storage for two weeks at 28° C. and 60 to 70% relative humidity, the minimal inhibitory concentration (MIC value) is determined. The MIC value characterizes the lowest concentration of active compound at which there is no growth of the microbial species used.
Consider `Cc1oncc1S(=O)(=O)n1nnc2cc3c(cc21)OC(F)(F)C(F)(F)O3` [drawing 93], for which the MIC was determined as 100 µg/mL (≈ 254 µM).
Still for that read-out and setting: the figure for `Cc1noc(C)c1C(=O)n1nnc2cc3c(cc21)OC(F)(F)C(F)(F)O3` is 100 µg/mL (≈ 269 µM).

The next test deals with Penicillium brevicaule. The test is described as above. The test is classed as cell-based. Particulars: 336 h, two weeks at 28° C., 60 to 70% relative humidity, read-out: Minimal inhibitory concentration (MIC value) Penicillium brevicaule. The protocol: as §1
With `Cc1oncc1S(=O)(=O)n1nnc2cc3c(cc21)OC(F)(F)C(F)(F)O3` [drawing 93], the MIC is 200 µg/mL (≈ 507 µM).
The same measure, in the same setting: to `Cc1noc(C)c1C(=O)n1nnc2cc3c(cc21)OC(F)(F)C(F)(F)O3` belongs 200 µg/mL (≈ 537 µM).

In another test the test system is Aspergillus niger. The description is as above. The test is classed as cell-based. Particulars: 336 h, two weeks at 28° C., 60 to 70% relative humidity, read-out: Minimal inhibitory concentration (MIC value) Aspergillus niger. The protocol: as §1
`Cc1oncc1S(=O)(=O)n1nnc2cc3c(cc21)OC(F)(F)C(F)(F)O3` [drawing 93]: the MIC was 200 µg/mL (≈ 507 µM).
The same measure, in the same setting: the figure for `Cc1noc(C)c1C(=O)n1nnc2cc3c(cc21)OC(F)(F)C(F)(F)O3` is 400 µg/mL (≈ 1070 µM).
